# Assay results as given in ChEMBL document CHEMBL1138443, “Carbonic anhydrase inhibitors. Cloning, characterization, and inhibition studies of a new beta-carbonic anhydrase from Mycobacterium tuberculosis” (J Med Chem, 2009).
# Molecular target: T1, Beta-carbonic anhydrase 1 (Mycobacterium tuberculosis, UniProt P9WPJ7)
# T1 sequence (P9WPJ7 whole entry): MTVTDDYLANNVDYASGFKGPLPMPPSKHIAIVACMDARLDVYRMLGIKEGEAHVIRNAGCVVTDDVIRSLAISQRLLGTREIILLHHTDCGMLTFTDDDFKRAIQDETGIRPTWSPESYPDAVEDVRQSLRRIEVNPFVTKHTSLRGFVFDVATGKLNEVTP
smiles,measurement,value
CC(=O)/N=c1/sc(S(N)(=O)=O)nn1C [METHAZOLAMIDE],Ki,781 nM
